Measured values: publication PMC5442124 (Scientific Reports, 2017)

How the values were obtained:
aquatic life = tested on: aquatic life; set-up: method as in earlier work; conditions: Canadian Sediment Quality Guidelines for the protection of aquatic life; cited from earlier work
[1] = set-up: method as in PMID 14194764; conditions: after 6 days’ dietary exposure to DDT (1500 μg/g); cited from earlier work
[2] = Bioaccumulation of DDTs in carp and carp tissues/organs in DDT spiked-sediment microcosm (food web); assay type: in vivo, Cyprinus carpio; conditions: treatment group; for concentration at 28 days / concentration at 9 day: Cyprinus carpio (carp), other: spiked sediment-water system with T. tubifex as prey; for concentration at 28 days: brain, end of the experiments; for concentration at 9 day: whole fish (wet weight), whole carp, read-out: concentration in carp at steady state; for maximum concentration in gastrointestinal tract: first 5 days
Protocol: (§1) The sediment was prepared in a glass aquarium with 3.6 kg soil (collected from China Agricultural University, and the physicochemical properties of the soil were as follows: clay, 34.8 ± 0.1%; silt, 10.0 ± 2.8%; sand, 55.2 ± 2.8%; organic matter, 24.4 ± 0.8 g/kg; and pH, 7.74 ± 0.05.) and 16 L de-chlorinated tap water, and incubated for seven days. The overlying water was discarded, and 400 g sediment (dry weight) was spiked with o,p’-DDT (50 ng/μL, 1600 μL) and p,p’-DDT (50 ng/μL, 1600 μL) in acetone. After the solvent was volatilized, the sediment was blended with the 3.6 kg sediment (dry weight) thoroughly. Dechlorinated tap water was added, and system was allowed to equilibrate for 48 h.
Environmentally relevant concentration exposure was conducted according to Organization for Economic Cooperation and Development (OECD section 305 and 315) test guidelinesn, [52]. […] T. tubifex is one of the most widespread and ubiquitous groups, which was considered to be a good bio-indicator[53], [54]. Carp are omnivorous demersal fish in fresh water ecosystems, which can serve as bio-indicators of environmental contaminants and play significant roles in assessing potential risk[44]. Adult T. tubifex and carp (2.0 ± 0.2 g, about 5 cm in length, ignore the gender) were obtained from Guan Yuan market (Beijing, China) and acclimatized in the laboratory for 2 weeks. T. tubifex (80 g) and ten fish were added into the sediment-water system for the exposure experiment. Twenty-seven glass aquariums with spiked sediment were cultivated at 14 h/10 h photoperiods and at 20 ± 2 °C for 28 days (nine aquariums were used to analyze the individual fish and T. tubifex worms, eighteen aquariums were used to analyze the tissue distribution and toxic effects). The overlying water was gently aerated and unchanged. Overlying water, fish (one from each aquariums), worms (about 1 g) and sediment were sampled on the 1st, 3ed, 5th, 9th, 14th, 21st, and 28th day. At the end of bioaccumulation experiments, all the fish and worms were transferred to un-spiked sediment for elimination experiments, respectively. Overlying water, fish (one from each aquariums), worms (about 1 g) and sediment were sampled on the 1st, 3ed, 5th, 7th, and 10th day. […] Fish were euthanized with an ice/water mixture.
(§2) The different tissues/organs of carp were extracted with different methods. Details of the extraction process please refer to the Supplementary Material. The lipid content of animals was measured according to Bligh and Dyer[55]. […] Details please refer to the Supplemental Material.

[3] = Elimination of DDTs in T. tubifex after transfer to un-spiked sediment; assay type: in vivo; conditions: elimination experiment in un-spiked sediment
Protocol: (§3) Environmentally relevant concentration exposure was conducted according to Organization for Economic Cooperation and Development (OECD section 305 and 315) test guidelinesn, [52]. Tubifex tubifex (Oligochaeta, Tubificidae) was chosen as prey, which could accumulate DDTs from sediment and transfer them to carp (Cyprinus carpio). T. tubifex is one of the most widespread and ubiquitous groups, which was considered to be a good bio-indicator[53], [54]. Carp are omnivorous demersal fish in fresh water ecosystems, which can serve as bio-indicators of environmental contaminants and play significant roles in assessing potential risk[44]. Adult T. tubifex and carp (2.0 ± 0.2 g, about 5 cm in length, ignore the gender) were obtained from Guan Yuan market (Beijing, China) and acclimatized in the laboratory for 2 weeks. T. tubifex (80 g) and ten fish were added into the sediment-water system for the exposure experiment. Twenty-seven glass aquariums with spiked sediment were cultivated at 14 h/10 h photoperiods and at 20 ± 2 °C for 28 days (nine aquariums were used to analyze the individual fish and T. tubifex worms, eighteen aquariums were used to analyze the tissue distribution and toxic effects). The overlying water was gently aerated and unchanged. Overlying water, fish (one from each aquariums), worms (about 1 g) and sediment were sampled on the 1st, 3ed, 5th, 9th, 14th, 21st, and 28th day. At the end of bioaccumulation experiments, all the fish and worms were transferred to un-spiked sediment for elimination experiments, respectively. Overlying water, fish (one from each aquariums), worms (about 1 g) and sediment were sampled on the 1st, 3ed, 5th, 7th, and 10th day. […] Fish were euthanized with an ice/water mixture.
as §2

[4] = Elimination of DDTs from carp and carp tissues/organs after transfer to un-spiked sediment; assay type: in vivo, Cyprinus carpio; conditions: for percentage eliminated from brain: carp brain; for percentage eliminated from brain / percentage eliminated from kidney: end of experiments; for elimination percentage from gallbladder: carp gallbladder; for elimination percentage in heart: carp heart; for percentage eliminated from kidney: carp kidney
Protocol: as §3, §2

[5] = Bioaccumulation of DDTs in T. tubifex in DDT spiked-sediment microcosm; assay type: in vivo; conditions: for maximum concentration in T. tubifex / concentration at 28 day: treatment group; for maximum concentration in T. tubifex: fifth day; for concentration at 28 day: Tubifex tubifex, whole worm (wet weight), other: exposure in spiked sediment-water system, day 28
Protocol: as §1, §3
The control treatments (twenty-seven glass aquariums: nine aquariums were used to analyze the individual fish and T. tubifex worms, eighteen aquariums were used to analyze the tissue distribution and toxic effects) were composed of worms, fish and un-spiked sediment. The cultivation, sample time and dissection procedures were the same to the exposure experiments.
as §2

[6] = rainbow trout exposed in water; cited from earlier work

Structure (SMILES) | concentration at 28 days ([2]; carp) | elimination efficiency in T. tubifex [3] | percentage eliminated from brain [4] | elimination percentage from gallbladder [4] | elimination percentage in heart [4] | percentage eliminated from kidney [4] | maximum concentration in T. tubifex [5] | concentration in brain (maximum) ([2]; carp, 9th day) | further results
Clc1ccc(C(c2ccc(Cl)cc2)C(Cl)(Cl)Cl)cc1 [DDT, Dichlorodiphenyltrichloroethane] | – | – | – | – | – | – | – | – | effects range-low (ERL) value in sediments (aquatic life): 1 ng/g; ratio DDT:DDD:DDE detected in the livers of rats [1]: approximately 3
Clc1ccc(C(c2ccccc2Cl)C(Cl)Cl)cc1 (centres unmarked) [o,p’-DDD] | 45.7 ± 0.3 ng/g | 49.0% | 65.5% | 66.9% | 72.5% | 65.4% | – | – | maximum concentration in kidney ([2]; carp, 28th day): 73.5 ± 1.9 ng/gwwt
ClC(Cl)=C(c1ccc(Cl)cc1)c1ccccc1Cl [o,p’-DDE] | – | 39.5% | 55.0% | 24.1% | – | 47.5% | 2.1 ± 0.2 ng/gwwt | 3.1 ± 0.1 ng/gwwt | –
Clc1ccc(C(c2ccccc2Cl)C(Cl)(Cl)Cl)cc1 (centres unmarked) [o,p’-DDT] | – | 65.7% | – | – | 51.9% | – | 74.6 ± 1.8 ng/gwwt | 40.3 ± 1.8 ng/gwwt | concentration at 28 day [5]: 5.6 ± 0.1 ng/g; concentration at 9 day ([2]; 9th day): 39.1 ± 0.3 ng/g; maximum concentration in kidney ([2]; carp, 9th day): 96.2 ± 2.0 ng/gwwt; maximum concentration in gastrointestinal tract ([2]; carp): 40.9 ± 0.9 ng/gwwt
Clc1ccc(C(c2ccc(Cl)cc2)C(Cl)Cl)cc1 [p,p’-DDD] | 68.4 ± 0.6 ng/g | 58.2% | 61.4% | 64.1% | 69.6% | 63.9% | – | – | maximum concentration in kidney ([2]; carp, 28th day): 89.9 ± 3.7 ng/gwwt
ClC(Cl)=C(c1ccc(Cl)cc1)c1ccc(Cl)cc1 [p,p’-DDE] | 41.6 ± 0.5 ng/g | 25.7% | 52.8% | 50.8% | 59.9% | 48.7% | 21.7 ± 0.8 ng/gwwt | – | maximum concentration in T. tubifex, control group ([5]; control group (un-spiked sediment), 14th day): 28.2 ± 1.1 ng/gwwt; highest concentration in kidney ([2]; carp, 21st day): 46.9 ± 0.6 ng/gwwt; maximum concentration in muscle ([2]; carp, 21st day): 11.7 ± 2.6 ng/gwwt
Clc1ccc(C(c2ccc(Cl)cc2)C(Cl)(Cl)Cl)cc1 [p,p’-DDT] | – | 73.6% | – | – | – | – | 165.5 ± 2.7 ng/gwwt | 49.1 ± 1.0 ng/gwwt | concentration at 28 day [5]: 18.4 ± 2.2 ng/g; concentration at 9 day ([2]; 9th day): 57.3 ± 3.1 ng/g; maximum concentration in kidney ([2]; carp, 9th day): 124.0 ± 2.6 ng/gwwt; maximum concentration in gastrointestinal tract ([2]; carp): 43.2 ± 0.5 ng/gwwt
Oc1c(Cl)c(Cl)c(Cl)c(Cl)c1Cl [pentachlorophenol] | – | – | – | – | – | – | – | – | dose eliminated in feces and bile [6]: 30%; dose eliminated in urine [6]: 20%; dose eliminated through the gills [6]: 50%
